# What was measured:
# LAMP2 [1] = molecular target: T1, LAMP2 (Homo sapiens, UniProt P13473); assay: competition with […] 3H-cholesterol on purified protein; assay type: binding; design: soluble lumenal domain, human LAMP2 (1–375)
# LAMP2 [2] = molecular target: T1, LAMP2; assay: single-concentration ([…]) competition with 3H-cholesterol on purified protein; assay type: binding; design: soluble lumenal domain, human LAMP2 (1–375)
# LAMP2 [3] = molecular target: T1, LAMP2; assay: direct 3H-25-hydroxycholesterol binding to purified protein; competition with 3H-cholesterol; design: soluble lumenal domain, human LAMP2 (1–375)
# LAMP1 = molecular target: T2, LAMP1 (Homo sapiens, UniProt P11279); assay: 3H-cholesterol binding to purified His-tagged protein on Ni-NTA
# T2 construct: soluble lumenal domain, human LAMP1(1–382)
# T2 sequence (P11279 1-382): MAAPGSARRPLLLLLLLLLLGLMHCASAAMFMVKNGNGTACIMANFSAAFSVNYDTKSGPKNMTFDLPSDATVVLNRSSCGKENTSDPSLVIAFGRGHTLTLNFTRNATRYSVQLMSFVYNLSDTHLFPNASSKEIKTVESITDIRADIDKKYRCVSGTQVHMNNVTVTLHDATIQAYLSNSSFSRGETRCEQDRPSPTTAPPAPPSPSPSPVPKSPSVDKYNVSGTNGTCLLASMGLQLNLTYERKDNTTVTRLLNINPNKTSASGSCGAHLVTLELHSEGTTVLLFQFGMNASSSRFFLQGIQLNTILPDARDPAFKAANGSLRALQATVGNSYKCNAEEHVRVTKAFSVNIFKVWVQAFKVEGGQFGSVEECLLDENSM
# LAMP2 [4] = molecular target: T1, LAMP2; assay: 3H-cholesterol binding to purified His-tagged protein on Ni-NTA, with cold competition; bound cholesterol also identified by TLC and LC/MS; design: soluble lumenal domain, human LAMP2 (1–375); also domain 1 (1–231) and domain 2
# AF647 labeled-NPC2 = AF647 labeled-NPC2 (UniProt P61916); assay: MST; 6 nM AF647 labelled NPC2, 16 two-fold dilutions of soluble LAMP2 or RNase B; 50 mM MES pH 5.5, 150 mM NaCl, 0.004% NP-40; in 1 µM cholesterol sulfate
# [5] = molecular target: AF647 labeled His6-NPC1 N-terminal domain (UniProt O15118); assay: MST; 6 nM AF647 labelled protein, 16 two-fold dilutions of soluble LAMP2; 50 mM MES pH 5.5, 150 mM NaCl, 0.004% NP-40; in 1 µM cholesterol; fluorescence read for NPC1 N-terminal domain, thermophoresis for RNase B
# Chain of AF647 labeled His6-NPC1 N-terminal domain (O15118 whole entry, the tested form may be a part): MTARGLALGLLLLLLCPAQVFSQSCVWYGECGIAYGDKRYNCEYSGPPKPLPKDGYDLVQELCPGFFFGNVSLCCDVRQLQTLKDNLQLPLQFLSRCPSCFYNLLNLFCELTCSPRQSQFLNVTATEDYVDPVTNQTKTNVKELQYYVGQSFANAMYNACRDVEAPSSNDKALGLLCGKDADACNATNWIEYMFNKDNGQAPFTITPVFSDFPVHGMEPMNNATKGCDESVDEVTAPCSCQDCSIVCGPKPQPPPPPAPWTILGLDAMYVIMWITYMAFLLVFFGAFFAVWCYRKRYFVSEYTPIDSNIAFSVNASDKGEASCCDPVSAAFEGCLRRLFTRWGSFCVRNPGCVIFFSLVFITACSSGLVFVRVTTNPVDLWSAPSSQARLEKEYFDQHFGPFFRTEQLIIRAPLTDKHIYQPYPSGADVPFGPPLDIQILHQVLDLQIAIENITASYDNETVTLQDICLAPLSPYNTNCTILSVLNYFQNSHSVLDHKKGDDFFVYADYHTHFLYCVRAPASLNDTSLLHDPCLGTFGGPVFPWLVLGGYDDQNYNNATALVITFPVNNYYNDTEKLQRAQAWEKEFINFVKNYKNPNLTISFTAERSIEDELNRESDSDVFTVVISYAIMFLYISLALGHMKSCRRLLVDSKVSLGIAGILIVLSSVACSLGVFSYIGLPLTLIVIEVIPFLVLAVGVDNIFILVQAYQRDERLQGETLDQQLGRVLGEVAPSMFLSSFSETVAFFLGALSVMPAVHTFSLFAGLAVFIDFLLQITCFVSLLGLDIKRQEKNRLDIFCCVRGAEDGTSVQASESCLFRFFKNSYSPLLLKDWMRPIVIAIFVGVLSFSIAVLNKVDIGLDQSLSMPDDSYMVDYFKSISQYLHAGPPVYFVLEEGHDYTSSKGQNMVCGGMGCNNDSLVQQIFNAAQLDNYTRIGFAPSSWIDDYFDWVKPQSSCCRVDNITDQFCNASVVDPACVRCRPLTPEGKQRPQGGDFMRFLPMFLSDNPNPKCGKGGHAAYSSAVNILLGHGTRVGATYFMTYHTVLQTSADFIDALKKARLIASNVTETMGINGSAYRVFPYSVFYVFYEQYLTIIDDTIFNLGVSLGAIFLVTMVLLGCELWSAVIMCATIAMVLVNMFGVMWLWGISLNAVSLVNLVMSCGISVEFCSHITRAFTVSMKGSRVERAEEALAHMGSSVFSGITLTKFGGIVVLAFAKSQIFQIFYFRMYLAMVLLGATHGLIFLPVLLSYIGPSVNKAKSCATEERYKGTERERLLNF
# T1 sequence (P13473 29-375): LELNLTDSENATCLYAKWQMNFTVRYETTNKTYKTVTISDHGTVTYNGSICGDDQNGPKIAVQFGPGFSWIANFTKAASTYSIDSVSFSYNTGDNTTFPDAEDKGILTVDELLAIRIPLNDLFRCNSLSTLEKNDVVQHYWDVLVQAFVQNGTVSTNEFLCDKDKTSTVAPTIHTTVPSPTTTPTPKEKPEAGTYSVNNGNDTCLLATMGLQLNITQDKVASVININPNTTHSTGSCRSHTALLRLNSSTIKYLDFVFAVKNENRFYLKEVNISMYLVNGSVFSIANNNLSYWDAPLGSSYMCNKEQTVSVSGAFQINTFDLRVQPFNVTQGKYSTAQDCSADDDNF
# Chain of AF647 labeled-NPC2 (P61916 20-151): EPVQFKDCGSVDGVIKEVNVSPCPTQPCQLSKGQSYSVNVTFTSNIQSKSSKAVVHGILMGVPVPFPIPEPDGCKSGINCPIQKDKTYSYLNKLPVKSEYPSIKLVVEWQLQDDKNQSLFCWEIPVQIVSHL
molecule,measurement,setting,value
CC(C)CCC[C@@H](C)[C@H]1CC[C@H]2[C@@H]3C(=O)C=C4C[C@@H](O)CC[C@]4(C)[C@H]3CC[C@]12C [7-ketocholesterol],competition with 50 nM 3H-cholesterol on purified protein,LAMP2 [1],"7-ketocholesterol (Figure 2D), but not cholesterol sulfate (Figure 2A), compete with ^3H-cholesterol for binding to LAMP2 protein"
"CC(C)C(O)CC[C@@H](C)[C@H]1CC[C@H]2[C@@H]3CC=C4C[C@@H](O)CC[C@]4(C)[C@H]3CC[C@]12C (stereo partly shown) [24-HC, 24-hydroxycholesterol]",single-concentration (30 μM) competition with 3H-cholesterol on purified protein,LAMP2 [2],"^3H-cholesterol binding was competed by unlabeled cholesterol, 24-hydroxycholesterol, but not cholesterol sulfate (Figure 1G)"
C[C@H](CCCC(C)(C)O)[C@H]1CC[C@H]2[C@@H]3CC=C4C[C@@H](O)CC[C@]4(C)[C@H]3CC[C@]12C [25-hydroxycholesterol],direct 3H-25-hydroxycholesterol binding to purified protein; competition with 3H,LAMP2 [3],LAMP2 also bound ^3H-25-hydroxycholesterol with similar apparent affinity as cholesterol; binding was competed by excess cold 25-hydroxycholesterol
CC(C)CCC[C@@H](C)[C@H]1CC[C@H]2[C@@H]3CC=C4C[C@@H](O)CC[C@]4(C)[C@H]3CC[C@]12C [cholesterol],3H-cholesterol binding to purified His-tagged protein on Ni-NTA,LAMP1,"Soluble, purified, LAMP1 and LAMP2 proteins appeared to bind ^3H-cholesterol saturably"
same,"3H-cholesterol binding to purified His-tagged protein on Ni-NTA, with cold compe",LAMP2 [4],"Soluble, purified, LAMP1 and LAMP2 proteins appeared to bind ^3H-cholesterol saturably"
"full length, soluble human LAMP2 (1-375) (from UniProt P13473 29-375) (domain or fragment)",Kd,AF647 labeled-NPC2,122 nM
same,Kd,[5],6 nM

# From PMC5068966, “Lysosomal membrane glycoproteins bind cholesterol and contribute to lysosomal cholesterol export” (eLife, 2016)
